Results reported in the NIST ThermoML archive (doi:10.1016/j.jct.2010.06.011).

Experiments:
[1] = Liquid, Vibrating tube method
[2] = xn = mol fraction of the nth substance listed; conditions: Liquid, Vibrating tube method, x2 = 0

COC(=O)OC [dimethyl carbonate]
mass density [kg/m3], [1]
Conditions	100 kPa	5000 kPa	10000 kPa	20000 kPa	30000 kPa	40000 kPa
293.15 K	1069.8	1074.4	1078.6	1086.9	1094.5	1101.9
298.15 K	1063.2	1068	1072.4	1080.8	1088.7	1096.2
303.15 K	1056.5	1061.3	1066	1074.7	1082.9	1090.4
308.15 K	1049.8	1054.6	1059.4	1068.5	1077	1084.8
313.15 K	1043	1048.1	1053	1062.3	1071	1079

CCCCCC [hexane]
mass density [kg/m3], [1]
Conditions	100 kPa	5000 kPa	10000 kPa	20000 kPa	30000 kPa	40000 kPa
293.15 K	659.4	664.8	669.7	678.7	686.9	694.3
298.15 K	654.9	660.4	665.5	674.8	683.2	690.7
303.15 K	650.2	655.8	661.2	670.8	679.3	687
308.15 K	645.7	651.5	657	666.9	675.8	683.6
313.15 K	640.9	647	652.8	663.1	672.1	680.2

CCCCCC [hexane] + COC(=O)OC
mass density [kg/m3], [2]
Conditions	100 kPa	5000 kPa	10000 kPa	20000 kPa	30000 kPa	40000 kPa
293.15 K	659.4	664.8	669.7	678.7	686.9	694.3
298.15 K	654.9	660.4	665.5	674.8	683.2	690.7
303.15 K	650.2	655.8	661.2	670.8	679.3	687
308.15 K	645.7	651.5	657	666.9	675.8	683.6
313.15 K	640.9	647	652.8	663.1	672.1	680.2
